Several values for one entry are separate records, joined by “and”; a condition that tells them apart may be missing. Equal values may be shown once.
Assays:
[1] = tested on: Salmonella typhimurium strains and E. coli strain WP2 uvrA; assay: Bacterial reverse mutation assay; settings: with and without metabolic activation
[2] = Plasma protein binding by equilibrium dialysis; settings: for fraction unbound at 6 h, 5 uM / fraction unbound at 6 h: rat, plasma
[3] = Monkey pharmacokinetic study; settings: for AUC(0-inf) / clearance / half-life / Vd / AUC(0-t): male, cynomolgus monkey, plasma; for AUC(0-inf) / clearance / half-life / Vd: iv; for AUC(0-inf): AUCinf; for Vd: Vdss; for AUC(0-t): po, 5 mg/kg, AUCt, PF-00835231 5mg/kg PO dose; for Total Concn in plasma: 1mg/kg IV PF-00835231 dosed (crossover), individual animals and mean
[4] = Cynomolgus, 1 mg/kg, Mean, monkey, PF-00835231 active dosed 1mg/kg intravenous (crossover)
[5] = Cynomolgus, 1 mg/kg, monkey, PF-00835231 active dosed 1mg/kg intravenous (crossover), individual monkeys

For `COc1cccc2[nH]c(C(=O)N[C@@H](CC(C)C)C(=O)N[C@@H](C[C@@H]3CCNC3=O)C(=O)CO)cc12` [PF-00835231], the “bacterial reverse mutation assay result” value [1] was “negative”, the Individual fraction unbound ([2]; Rat Wistar han plasma, 5.0 uM, replicates Day 1-3) was 0.368 and 0.323 and 0.339 and 0.35 and 0.268 and 0.363 and 0.364 and 0.263 and 0.326 and 0.358 and 0.285 and the fraction unbound at 6 h, 5 uM ([2]; Wistar Han, pH 7.4, Fraction unbound, Geomean, Rat plasma, 5.0 uM, n 12) was 0.327. For the same compound, the fraction unbound at 6 h, 5 uM ([2]; Wistar Han, pH 7.4, Individual fraction unbound, Rat Wistar han plasma, 5.0 uM, replicates Day 1-3) was 0.343, the fraction unbound at 6 h ([2]; Wistar Hannover, pH 7.4, Plasma fu, Vdss input) was 0.327 and the fraction unbound at 6 h ([2]; Wistar Hannover, pH 7.4, Unbound fraction fu (%CV), rat plasma (PF-07304814 Sprague-Dawley, PF-00835231 Wistar Hannover)) was 0.327. For the same compound, the fraction unbound at 6 h, 5 uM ([2]; Wistar Hannover, pH 7.4, fraction unbound Geomean, rat plasma, 5.0 uM, n=12) was 0.327, the “Total Concn, Mean” value ([3]; Monkey, 1mg/kg intravenous, Time 0.083) was 1225 ng/mL and the “Total Concn” value ([3]; Monkey, 1mg/kg intravenous, Time 0.083, individual animals) was 1220 ng/mL. For the same compound, the “Total Concn” value ([3]; Monkey, 1mg/kg intravenous, Time 0.083, individual animals, 1 mg/kg) was 1230 ng/mL, the “Total Concn, Mean” value ([3]; Monkey, 1mg/kg intravenous, Time 0.25) was 365 ng/mL and the “Total Concn” value ([3]; Monkey, 1mg/kg intravenous, Time 0.25, individual animals) was 288 ng/mL. The “Total Concn” value ([3]; Monkey, 1mg/kg intravenous, Time 0.25, individual animals, 1 mg/kg) was 442 ng/mL, the “Total Concn, Mean” value ([3]; Monkey, 1mg/kg intravenous, Time 0.5) was 183 ng/mL and the “Total Concn” value ([3]; Monkey, 1mg/kg intravenous, Time 0.5, individual animals) was 154 ng/mL. The “Total Concn” value ([3]; Monkey, 1mg/kg intravenous, Time 0.5, individual animals, 1 mg/kg) was 212 ng/mL, the “Total Concn, Mean” value ([3]; Monkey, 1mg/kg intravenous, Time 1) was 107 ng/mL and the “Total Concn” value ([3]; Monkey, 1mg/kg intravenous, Time 1, individual animals, 1 mg/kg) was 89.9 ng/mL and 124 ng/mL. The “Total Concn, Mean” value ([3]; Monkey, 1mg/kg intravenous, Time 2) was 46 ng/mL, the “Total Concn” value ([3]; Monkey, 1mg/kg intravenous, Time 2, individual animals, 1 mg/kg) was 45.5 ng/mL and 47 ng/mL and the “Total Concn, Mean” value ([3]; Monkey, 1mg/kg intravenous, Time 4) was 13 ng/mL. For the same compound, the “Total Concn” value ([3]; Monkey, 1mg/kg intravenous, Time 4, individual animals, 1 mg/kg) was 12.2 ng/mL and 14 ng/mL, the “Total Concn, Mean” value ([3]; Monkey, 1mg/kg intravenous, Time 7) was 2.6 ng/mL and the “Total Concn” value ([3]; Monkey, 1mg/kg intravenous, Time 7, individual animals, 1 mg/kg) was 2.87 ng/mL and 2.25 ng/mL. For the same compound, the Vdss ([3]; Monkey, 1mg/kg intravenous, individual animals, 1 mg/kg) was 1.51 L/kg, the AUC(0-inf) [3, 4] was 0.583 µg·h/mL and the AUC(0-inf) [3, 5] was 0.614 µg·h/mL. The clearance ([3]; Cynomolgus, 1 mg/kg, Clearance, Mean, monkey, PF-00835231 active dosed 1mg/kg intravenous (crossover)) was 1.72 L/h/kg, the clearance ([3]; Cynomolgus, 1 mg/kg, Clearance, monkey, PF-00835231 active dosed 1mg/kg intravenous (crossover), individual monkeys) was 1.63 L/h/kg and the half-life ([3]; Cynomolgus, 1 mg/kg, Half life, Mean, monkey, PF-00835231 active dosed 1mg/kg intravenous (crossover)) was 0.92 h. For the same compound, the half-life ([3]; Cynomolgus, 1 mg/kg, Half life, monkey, PF-00835231 active dosed 1mg/kg intravenous (crossover), individual monkeys) was 1.14 h, the Vd [3, 4] was 1.43 L/kg and the Vd [3, 5] was 1.34 L/kg. For the same compound, the half-life ([3]; 1 mg/kg, Terminal T1/2, monkey IV (n=2, range), PF-07304814 […], PF-00835231 1.0mg/kg) was less than 2 h, the Vd ([3]; 1 mg/kg, Mean, Monkey, 1mg/kg intravenous) was 1.43 L/kg and the Vd ([3]; 1 mg/kg, Monkey, 1mg/kg intravenous, individual animals) was 1.34 L/kg. The Vd ([3]; 1 mg/kg, Monkey, Vdss input) was 1.4 L/kg, the Vd ([3]; 1 mg/kg, monkey IV (n=2, range), PF-07304814 […], PF-00835231 1.0mg/kg) was less than 1.5 L/kg and the clearance ([3]; Cl, monkey IV (n=2, range), PF-07304814 […], PF-00835231 1.0mg/kg) was 1.72 L/h/kg. It also gave a half-life ([3]; Terminal T1/2, monkey IV (n=2, range), PF-07304814 […], PF-00835231 1.0mg/kg) of 1.2 h, a Vd ([3]; monkey IV (n=2, range), PF-07304814 […], PF-00835231 1.0mg/kg) of 1.4 L/kg and an AUC(0-t) ([3]; Mean, monkey) of 0.000466 µg·h/mL. The AUC(0-t) ([3]; monkey, individual monkeys) was 0.000328 µg·h/mL, the “Total Concn” value ([3]; monkey plasma, PF-00835231 active dosed 1mg/kg intravenous (crossover), time 0.5 h, individual monkeys, 1 mg/kg) was 212 ng/mL and the “Total Concn” value ([3]; monkey plasma, PF-00835231 active dosed 1mg/kg intravenous (crossover), time 1 h, individual monkeys, 1 mg/kg) was 124 ng/mL. The “Total Concn” value ([3]; monkey plasma, PF-00835231 active dosed 1mg/kg intravenous (crossover), time 2 h, individual monkeys, 1 mg/kg) was 47 ng/mL, the “Total Concn” value ([3]; monkey plasma, PF-00835231 active dosed 1mg/kg intravenous (crossover), time 4 h, individual monkeys, 1 mg/kg) was 14 ng/mL and the “Total Concn” value ([3]; monkey plasma, PF-00835231 active dosed 1mg/kg intravenous (crossover), time 7 h, individual monkeys, 1 mg/kg) was 2.25 ng/mL. For the same compound, the “Urine Concn” value ([3]; monkey urine 0-7h, PF-00835231 active dosed 1mg/kg intravenous (crossover), individual monkeys, 1 mg/kg) was 260 ng/mL and 304 ng/mL, the “Urine Concn” value ([3]; monkey urine 7-24h, PF-00835231 active dosed 1mg/kg intravenous (crossover), individual monkeys, 1 mg/kg) was 6.76 ng/mL and 33.1 ng/mL and the “Total Concn in plasma” value ([3]; monkey, Time 0.083, 1 mg/kg) was 1220 ng/mL and 1225 ng/mL. For the same compound, the “Total Concn in plasma” value ([3]; monkey, Time 0.25, 1 mg/kg) was 442 ng/mL and 365 ng/mL, the “Total Concn in plasma” value ([3]; monkey, Time 0.5, 1 mg/kg) was 212 ng/mL and 183 ng/mL and the “Total Concn in plasma” value ([3]; monkey, Time 1, 1 mg/kg) was 124 ng/mL and 107 ng/mL. The “Total Concn in plasma” value ([3]; monkey, Time 2, 1 mg/kg) was 47 ng/mL and 46 ng/mL.
